# Laboratory results published in PubChem BioAssay (NCI).
#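 The compound was tested at five concentrations on cells cultured in 96-well plates, with a 48-hour exposure period. Here, GI50 denotes the concentration required for 50% inhibition of growth. TGI denotes the concentration required for complete inhibition of growth.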
# What was measured:
# Assay in all cases: DTP human tumour cell line panel, 48 h
# [1] = test system: SK-MEL-5 melanoma
# [2] = test system: SF-539 CNS
# [3] = test system: MALME-3M melanoma
# [4] = test system: NCI/ADR-RES ovarian
# [5] = test system: HT29 colon
# [6] = test system: UO-31 renal
# [7] = test system: HCT-116 colon
# [8] = test system: OVCAR-5 ovarian
# [9] = test system: A498 renal
# [10] = test system: T-47D breast
# [11] = test system: DU-145 prostate
# [12] = test system: MCF7 breast
# [13] = test system: RXF 393 renal
# [14] = test system: OVCAR-3 ovarian
# [15] = test system: SNB-19 CNS
# [16] = test system: MDA-MB-435
# [17] = test system: UACC-62 melanoma
# [18] = test system: SK-MEL-28 melanoma
# [19] = test system: NCI-H460 lung
# [20] = test system: OVCAR-4 ovarian
# [21] = test system: HOP-62 NSCLC
# [22] = test system: 786-0 renal
# [23] = test system: SN12C renal
# [24] = test system: OVCAR-8 ovarian
# [25] = test system: SK-MEL-2 melanoma
# [26] = test system: PC-3 prostate
# [27] = test system: CAKI-1 renal
# [28] = test system: NCI-H226 lung
# [29] = test system: LOX IMVI melanoma
# [30] = test system: HL-60(TB) leukemia
# [31] = test system: COLO 205 colon
# [32] = test system: HS 578T breast
# [33] = test system: U251 CNS
# [34] = test system: M14 melanoma
# [35] = test system: K-562 leukemia
# [36] = test system: SK-OV-3 ovarian
# [37] = test system: MOLT-4 leukemia
# [38] = test system: SR leukemia
# [39] = test system: CCRF-CEM leukemia
# [40] = test system: SW-620 colon
# [41] = test system: HCC-2998 colon
# [42] = test system: RPMI-8226 leukemia
# [43] = test system: HOP-92 NSCLC
# [44] = test system: UACC-257 melanoma
# [45] = test system: SF-295 CNS
# [46] = test system: TK-10 renal
# [47] = test system: SNB-75 CNS
# [48] = test system: NCI-H522 lung
# [49] = test system: ACHN renal
# [50] = test system: KM12 colon
# [51] = test system: BT-549 breast
# [52] = test system: SF-268 CNS
# [53] = test system: EKVX NSCLC
# [54] = test system: IGROV1 ovarian
# [55] = test system: HCT-15 colon
# [56] = test system: MDA-MB-231 breast
# [57] = test system: A549 NSCLC
smiles,measurement,setting,value
CCNC(=O)N1CCc2cc(OC)c(OCCc3ccc(OC)c(N)c3)cc2C1c1ccc(C)cc1C (stereo not drawn),GI50,[1],106 nM
same,TGI,[1],1700 nM
same,GI50,[2],77.1 nM
same,TGI,[2],1740 nM
same,GI50,[3],624 nM
same,TGI,[3],76100 nM
same,GI50,[4],229 nM
same,TGI,[4],2460 nM
same,GI50,[5],261 nM
same,TGI,[5],1770 nM
same,GI50,[6],238 nM
same,TGI,[6],> 95000 nM
same,GI50,[7],31.1 nM
same,TGI,[7],25800 nM
same,GI50,[8],538 nM
same,TGI,[8],> 100000 nM
same,GI50,[9],2780 nM
same,GI50,[10],280 nM
same,TGI,[10],92800 nM
same,GI50,[11],208 nM
same,TGI,[11],> 40800 nM
same,GI50,[12],63.4 nM
same,TGI,[12],> 83500 nM
same,GI50,[13],234 nM
same,TGI,[13],5010 nM
same,GI50,[14],150 nM
same,TGI,[14],22200 nM
same,GI50,[15],191 nM
same,TGI,[15],> 100000 nM
same,GI50,[16],139 nM
same,TGI,[16],496 nM
same,GI50,[17],105 nM
same,TGI,[17],2750 nM
same,GI50,[18],283 nM
same,TGI,[18],23300 nM
same,GI50,[19],30.9 nM
same,TGI,[19],1890 nM
same,GI50,[20],1470 nM
same,TGI,[20],> 100000 nM
same,GI50,[21],226 nM
same,TGI,[21],> 46400 nM
same,GI50,[22],165 nM
same,TGI,[22],92000 nM
same,GI50,[23],294 nM
same,TGI,[23],22200 nM
same,GI50,[24],105 nM
same,TGI,[24],34300 nM
same,GI50,[25],996 nM
same,TGI,[25],14400 nM
same,GI50,[26],54.8 nM
same,TGI,[26],> 100000 nM
same,GI50,[27],161 nM
same,TGI,[27],31400 nM
same,GI50,[28],643 nM
same,TGI,[28],14600 nM
same,GI50,[29],36.5 nM
same,TGI,[29],1740 nM
same,GI50,[30],100 nM
same,TGI,[30],1820 nM
same,GI50,[31],318 nM
same,TGI,[31],2820 nM
same,GI50,[32],273 nM
same,TGI,[32],23800 nM
same,GI50,[33],74.3 nM
same,TGI,[33],24600 nM
same,GI50,[34],205 nM
same,TGI,[34],15200 nM
same,GI50,[35],29.1 nM
same,TGI,[35],> 100000 nM
same,GI50,[36],533 nM
same,TGI,[36],> 90000 nM
same,GI50,[37],38.4 nM
same,TGI,[37],> 100000 nM
same,GI50,[38],27 nM
same,TGI,[38],6240 nM
same,GI50,[39],58.6 nM
same,TGI,[39],> 76600 nM
same,GI50,[40],106 nM
same,TGI,[40],> 100000 nM
same,GI50,[41],344 nM
same,TGI,[41],23300 nM
same,GI50,[42],89.9 nM
same,TGI,[42],1600 nM
same,GI50,[43],4810 nM
same,TGI,[43],56700 nM
same,GI50,[44],533 nM
same,TGI,[44],> 82000 nM
same,GI50,[45],164 nM
same,TGI,[45],11100 nM
same,GI50,[46],2140 nM
same,TGI,[46],> 100000 nM
same,GI50,[47],184 nM
same,TGI,[47],4270 nM
same,GI50,[48],98.4 nM
same,TGI,[48],440 nM
same,GI50,[49],121 nM
same,TGI,[49],> 60400 nM
same,GI50,[50],493 nM
same,TGI,[50],65900 nM
same,GI50,[51],349 nM
same,TGI,[51],3460 nM
same,GI50,[52],278 nM
same,TGI,[52],> 95300 nM
same,GI50,[53],1510 nM
same,TGI,[53],> 100000 nM
same,GI50,[54],132 nM
same,TGI,[54],> 100000 nM
same,GI50,[55],< 26.3 nM
same,TGI,[55],> 100000 nM
same,GI50,[56],134 nM
same,TGI,[56],> 56300 nM
same,GI50,[57],151 nM
same,TGI,[57],> 100000 nM
